Results as given in patent US11981658B2, “Substituted aminopyridine compounds as EGFR inhibitors” (YUHAN CORPORATION, priority 2021, dated 2024).
Like-named read-outs stand apart in the source and are kept apart here.

Assays:
EGFR wildtype (WT) = EGFR wildtype (WT) (Homo sapiens, UniProt P00533); assay: Biochemical EGFR kinase inhibition assay (Lance Ultra TR-FRET), wildtype
In short: (§1)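 Step 1: compound in kinase buffer, 0.003–10 μM. Step 2: kinase reaction 1 h at room temperature. Step 4: TR-FRET read at 615/665 nm; IC50 calculated.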

EGFR L858R/C797S = EGFR L858R/C797S (Homo sapiens, UniProt P00533, C797S/L858R); assay: Biochemical EGFR kinase inhibition assay (Lance Ultra TR-FRET), double mutant L858R/C797S
Chain of EGFR L858R/C797S (P00533 25-1210 C797S/L858R): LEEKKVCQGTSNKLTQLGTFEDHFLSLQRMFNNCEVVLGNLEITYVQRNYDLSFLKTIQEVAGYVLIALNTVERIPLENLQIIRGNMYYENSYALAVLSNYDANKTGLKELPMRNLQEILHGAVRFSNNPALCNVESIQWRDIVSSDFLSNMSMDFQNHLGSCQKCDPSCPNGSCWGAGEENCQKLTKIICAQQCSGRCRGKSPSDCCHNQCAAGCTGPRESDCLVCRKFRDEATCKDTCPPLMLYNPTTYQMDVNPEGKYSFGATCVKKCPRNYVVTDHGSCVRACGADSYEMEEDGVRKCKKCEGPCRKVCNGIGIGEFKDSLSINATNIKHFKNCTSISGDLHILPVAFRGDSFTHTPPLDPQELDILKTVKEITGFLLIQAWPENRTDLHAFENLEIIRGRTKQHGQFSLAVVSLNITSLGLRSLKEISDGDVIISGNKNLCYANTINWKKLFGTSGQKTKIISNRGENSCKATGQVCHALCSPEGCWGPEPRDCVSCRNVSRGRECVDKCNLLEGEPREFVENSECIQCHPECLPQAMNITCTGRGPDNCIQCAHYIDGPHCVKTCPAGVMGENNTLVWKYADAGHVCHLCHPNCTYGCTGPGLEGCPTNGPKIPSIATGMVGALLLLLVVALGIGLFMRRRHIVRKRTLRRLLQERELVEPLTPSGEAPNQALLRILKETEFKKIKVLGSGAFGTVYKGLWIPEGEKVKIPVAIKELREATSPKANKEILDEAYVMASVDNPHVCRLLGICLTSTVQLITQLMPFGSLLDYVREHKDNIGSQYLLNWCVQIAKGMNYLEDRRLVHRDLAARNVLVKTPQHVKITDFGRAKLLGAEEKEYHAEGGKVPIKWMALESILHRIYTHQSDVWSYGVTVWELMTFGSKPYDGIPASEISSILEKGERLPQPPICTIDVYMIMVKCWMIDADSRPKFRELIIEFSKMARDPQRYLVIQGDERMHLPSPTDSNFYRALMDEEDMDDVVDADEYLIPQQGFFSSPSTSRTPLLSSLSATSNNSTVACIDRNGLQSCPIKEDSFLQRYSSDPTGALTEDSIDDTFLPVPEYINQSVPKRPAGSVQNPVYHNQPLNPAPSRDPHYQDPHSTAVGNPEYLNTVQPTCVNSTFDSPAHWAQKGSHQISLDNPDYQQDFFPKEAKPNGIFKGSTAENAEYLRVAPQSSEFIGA
In short: as §1

EGFR L858R/T790M/C797S = EGFR L858R/T790M/C797S (Homo sapiens, UniProt P00533, C797S/L858R/T790M); assay: Biochemical EGFR kinase inhibition assay (Lance Ultra TR-FRET), triple mutant L858R/T790M/C797S
In short: as §1

EGFR Del19/C797S = EGFR Del19/C797S (Homo sapiens, UniProt P00533, C797S/DEL746-750); assay: Biochemical EGFR kinase inhibition assay (Lance Ultra TR-FRET), double mutant del19/C797S
Chain of EGFR Del19/C797S (P00533 with tags, fused parts or gaps DEL746-750/C797S): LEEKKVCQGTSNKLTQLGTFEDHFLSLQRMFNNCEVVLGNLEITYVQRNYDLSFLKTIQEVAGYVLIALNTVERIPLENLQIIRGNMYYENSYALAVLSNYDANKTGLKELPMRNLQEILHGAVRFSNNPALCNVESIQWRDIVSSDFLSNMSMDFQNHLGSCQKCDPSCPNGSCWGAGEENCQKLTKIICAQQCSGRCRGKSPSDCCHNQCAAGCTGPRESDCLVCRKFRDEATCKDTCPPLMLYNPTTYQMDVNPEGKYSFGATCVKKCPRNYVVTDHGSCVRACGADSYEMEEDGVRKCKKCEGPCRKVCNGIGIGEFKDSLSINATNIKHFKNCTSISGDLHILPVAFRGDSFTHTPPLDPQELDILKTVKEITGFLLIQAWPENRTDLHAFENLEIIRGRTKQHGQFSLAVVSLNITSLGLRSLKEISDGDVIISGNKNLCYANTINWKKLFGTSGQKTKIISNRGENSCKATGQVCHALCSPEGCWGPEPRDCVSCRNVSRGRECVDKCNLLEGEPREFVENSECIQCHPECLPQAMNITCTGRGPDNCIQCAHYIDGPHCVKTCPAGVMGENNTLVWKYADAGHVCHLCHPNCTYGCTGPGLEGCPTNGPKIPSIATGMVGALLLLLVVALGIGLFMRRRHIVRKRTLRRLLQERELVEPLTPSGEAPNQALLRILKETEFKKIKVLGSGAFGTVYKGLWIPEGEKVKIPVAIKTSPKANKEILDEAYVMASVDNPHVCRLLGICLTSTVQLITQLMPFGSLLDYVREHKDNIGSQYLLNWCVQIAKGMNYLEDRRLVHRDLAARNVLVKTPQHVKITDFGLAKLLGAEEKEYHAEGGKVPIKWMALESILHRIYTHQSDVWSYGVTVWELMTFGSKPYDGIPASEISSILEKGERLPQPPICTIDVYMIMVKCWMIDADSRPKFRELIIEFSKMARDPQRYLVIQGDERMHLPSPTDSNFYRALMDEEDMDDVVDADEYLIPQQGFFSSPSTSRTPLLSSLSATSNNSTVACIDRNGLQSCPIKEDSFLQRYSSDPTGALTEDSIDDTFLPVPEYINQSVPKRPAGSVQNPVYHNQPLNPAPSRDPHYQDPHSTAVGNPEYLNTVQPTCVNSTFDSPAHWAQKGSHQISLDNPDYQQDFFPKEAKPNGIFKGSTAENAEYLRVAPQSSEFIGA
In short: as §1

EGFR Del19/T790M/C797S = EGFR Del19/T790M/C797S (Homo sapiens, UniProt P00533, C797S/DEL746-750/T790M); assay: Biochemical EGFR kinase inhibition assay (Lance Ultra TR-FRET), triple mutant del19/T790M/C797S
Chain of EGFR Del19/T790M/C797S (P00533 with tags, fused parts or gaps DEL746-750/T790M/C797S): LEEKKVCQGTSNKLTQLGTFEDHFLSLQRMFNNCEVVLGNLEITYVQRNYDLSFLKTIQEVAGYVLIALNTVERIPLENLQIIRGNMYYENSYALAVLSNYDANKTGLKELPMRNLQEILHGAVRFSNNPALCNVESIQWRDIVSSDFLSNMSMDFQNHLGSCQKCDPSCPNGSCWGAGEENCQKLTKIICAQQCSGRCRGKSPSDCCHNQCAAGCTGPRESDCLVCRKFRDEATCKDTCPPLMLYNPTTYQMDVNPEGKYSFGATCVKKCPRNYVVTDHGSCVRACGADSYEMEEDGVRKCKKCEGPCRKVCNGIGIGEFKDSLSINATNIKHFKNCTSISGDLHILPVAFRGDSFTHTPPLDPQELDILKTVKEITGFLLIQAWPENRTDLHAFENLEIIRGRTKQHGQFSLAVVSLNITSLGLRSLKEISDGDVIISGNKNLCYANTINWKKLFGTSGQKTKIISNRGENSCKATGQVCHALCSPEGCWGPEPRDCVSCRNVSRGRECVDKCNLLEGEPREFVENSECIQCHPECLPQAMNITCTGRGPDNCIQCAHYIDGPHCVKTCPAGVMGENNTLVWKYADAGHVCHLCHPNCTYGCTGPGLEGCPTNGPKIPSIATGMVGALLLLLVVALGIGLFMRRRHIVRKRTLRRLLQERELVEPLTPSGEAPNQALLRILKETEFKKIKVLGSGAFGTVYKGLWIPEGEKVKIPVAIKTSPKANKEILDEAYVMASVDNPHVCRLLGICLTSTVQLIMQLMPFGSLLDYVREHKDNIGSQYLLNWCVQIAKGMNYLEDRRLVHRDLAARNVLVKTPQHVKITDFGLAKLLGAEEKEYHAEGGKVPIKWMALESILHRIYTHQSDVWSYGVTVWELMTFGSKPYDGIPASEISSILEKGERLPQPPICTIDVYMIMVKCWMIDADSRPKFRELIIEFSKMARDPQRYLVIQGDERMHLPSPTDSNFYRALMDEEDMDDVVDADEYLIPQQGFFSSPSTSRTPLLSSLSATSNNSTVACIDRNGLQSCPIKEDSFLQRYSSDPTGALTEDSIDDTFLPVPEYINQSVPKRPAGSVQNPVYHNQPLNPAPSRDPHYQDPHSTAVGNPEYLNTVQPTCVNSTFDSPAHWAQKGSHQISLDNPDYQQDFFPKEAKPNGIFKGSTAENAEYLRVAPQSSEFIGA
In short: as §1

[1] = IC50 L858R/C797S (nM), 100 μM ATP
[2] = IC50 L858R/T790M/C797S (nM), 100 μM ATP
[3] = IC50 Del19/C797S (nM), 100 μM ATP
[4] = IC50 Del19/T790M/C797S (nM), 100 μM ATP
[5] = Km ATP, read-out: IC50 WT (nM) Km ATP
[6] = Km ATP, read-out: IC50 L858R/C797S (nM) Km ATP
[7] = Km ATP, read-out: IC50 L858R/T790M/C797S (nM) Km ATP
[8] = Km ATP, read-out: IC50 Del19/C797S (nM) Km ATP
[9] = Km ATP, read-out: IC50 Del19/T790M/C797S (nM) Km ATP

Chain of EGFR wildtype (WT) (P00533 25-1210): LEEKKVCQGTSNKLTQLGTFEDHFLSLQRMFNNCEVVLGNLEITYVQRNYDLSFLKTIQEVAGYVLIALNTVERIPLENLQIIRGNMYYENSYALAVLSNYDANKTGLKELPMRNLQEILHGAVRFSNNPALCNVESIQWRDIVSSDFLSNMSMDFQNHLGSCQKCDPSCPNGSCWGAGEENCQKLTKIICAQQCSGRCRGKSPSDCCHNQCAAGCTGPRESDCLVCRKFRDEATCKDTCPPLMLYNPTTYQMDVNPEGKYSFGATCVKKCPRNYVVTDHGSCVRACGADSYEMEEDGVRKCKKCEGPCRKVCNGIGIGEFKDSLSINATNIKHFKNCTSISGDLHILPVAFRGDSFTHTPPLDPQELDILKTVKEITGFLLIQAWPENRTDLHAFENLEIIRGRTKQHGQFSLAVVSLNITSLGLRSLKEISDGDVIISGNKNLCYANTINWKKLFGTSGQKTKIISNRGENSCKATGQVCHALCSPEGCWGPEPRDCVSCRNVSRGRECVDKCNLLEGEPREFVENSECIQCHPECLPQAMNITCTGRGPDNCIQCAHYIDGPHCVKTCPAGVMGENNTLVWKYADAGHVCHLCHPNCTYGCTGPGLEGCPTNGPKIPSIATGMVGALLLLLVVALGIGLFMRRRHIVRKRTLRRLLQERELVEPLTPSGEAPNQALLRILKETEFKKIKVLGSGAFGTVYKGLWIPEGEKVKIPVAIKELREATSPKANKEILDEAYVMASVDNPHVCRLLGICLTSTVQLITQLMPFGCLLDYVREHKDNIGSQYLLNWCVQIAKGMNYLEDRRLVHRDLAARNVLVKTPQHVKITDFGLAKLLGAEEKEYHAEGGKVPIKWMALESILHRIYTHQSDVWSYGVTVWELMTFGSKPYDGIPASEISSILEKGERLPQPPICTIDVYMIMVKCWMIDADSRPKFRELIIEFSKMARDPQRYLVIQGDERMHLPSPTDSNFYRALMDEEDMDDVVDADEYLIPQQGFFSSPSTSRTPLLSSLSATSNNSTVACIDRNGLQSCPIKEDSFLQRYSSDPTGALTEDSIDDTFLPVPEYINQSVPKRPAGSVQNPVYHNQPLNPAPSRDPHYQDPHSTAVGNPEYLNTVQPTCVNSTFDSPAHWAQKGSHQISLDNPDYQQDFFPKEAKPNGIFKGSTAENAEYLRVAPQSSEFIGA

SMILES | IC50 (EGFR wildtype (WT); IC50 WT (nM), 100 μM ATP) | IC50 (EGFR L858R/C797S; [1]) | IC50 (EGFR L858R/T790M/C797S; [2]) | IC50 (EGFR Del19/C797S; [3]) | IC50 (EGFR Del19/T790M/C797S; [4]) | IC50 (EGFR wildtype (WT); [5]) | IC50 (EGFR L858R/C797S; [6]) | IC50 (EGFR L858R/T790M/C797S; [7]) | IC50 (EGFR Del19/C797S; [8]) | IC50 (EGFR Del19/T790M/C797S; [9]) | IC50 (EGFR L858R/T790M/C797S; Km ATP, read-out: IC50 L858R/T790M/C797S (nM), Km ATP) | IC50 (EGFR Del19/T790M/C797S; Km ATP, read-out: IC50 Del19/T790M/C797S (nM), Km ATP) | IC50 (EGFR wildtype (WT); ATP at Km, read-out: IC50 WT (nM), Km ATP) | IC50 (EGFR L858R/C797S; ATP at Km, read-out: IC50 L858R/C797S (nM), Km ATP) | IC50 (EGFR L858R/T790M/C797S; ATP at Km, read-out: IC50 L858R/T790M/C797S (nM), Km ATP) | IC50 (EGFR Del19/C797S; ATP at Km, read-out: IC50 Del19/C797S (nM), Km ATP) | IC50 (EGFR Del19/T790M/C797S; ATP at Km, read-out: IC50 Del19/T790M/C797S (nM), Km ATP)
Cn1cc(C#Cc2cnc(Nc3ccnc(-c4cnn(S(=O)(=O)C5CC5)c4)n3)cc2N2CCC(O)C(C)(C)C2)cn1 (stereo not shown) [Example 69, 1-(2-((2-(1-(Cyclopropylsulfonyl)-1H-pyrazol-4-yl)pyrimidin-4-yl)amino)-5-((1-methyl-1H-pyrazol-4-yl)ethynyl)pyridin-4-yl)-3,3-dimethylpiperidin-4-ol] | > 10000 nM | 179 nM | 13.2 nM | 43.8 nM | 1.7 nM |  |  |  |  |  |  |  |  |  |  |  | 
Cn1cc(C#Cc2cnc(Nc3ccnc(-c4cnn(S(=O)(=O)C5CC5)c4)n3)cc2N2CCC(=O)CC2)cn1 [Example 7, 1-(2-((2-(1-(Cyclopropylsulfonyl)-1H-pyrazol-4-yl)pyrimidin-4-yl)amino)-5-((1-methyl-1H-pyrazol-4-yl)ethynyl)pyridin-4-yl)piperidin-4-one] | > 10000 nM | 143 nM | 5 nM | 24.2 nM | 4.5 nM |  |  |  |  |  |  |  |  |  |  |  | 
O=C(c1ccc(C#Cc2cnc(Nc3ccnc(-c4cnn(S(=O)(=O)C5CC5)c4)n3)cc2N2CCC[C@@H](O)C2)cc1)N1CCC(O)CC1 [Example 444, (R)-(4-((6-((2-(1-(Cyclopropylsulfonyl)-1H-pyrazol-4-yl)pyrimidin-4-yl)amino)-4-(3-hydroxypiperidin-1-yl)pyridin-3-yl)ethynyl)phenyl)(4-hydroxypiperidin-1-yl)methanone] | > 10000 nM | 549 nM | 1.5 nM | 10.2 nM | 1.5 nM |  |  |  |  |  | 0.3 nM | 0.9 nM |  |  |  |  | 
Cn1cc(C#Cc2cnc(Nc3ccnc(-c4cnn(S(=O)(=O)C5CC5)c4)n3)cc2N[C@@H]2CCC[C@H](O)C2)cn1 [Example 45, (1 S,3R)-3-((2-((2-(1-(Cyclopropylsulfonyl)-1H-pyrazol-4-yl)pyrimidin-4-yl)amino)-5-((1-methyl-1H-pyrazol-4-yl)ethynyl)pyridin-4-yl)amino)cyclohexan-1-ol] | > 10000 nM | 46.2 nM | 2.3 nM | 7.3 nM | 0.9 nM |  |  |  |  |  |  |  |  |  |  |  | 

These reach a lower IC50 (EGFR wildtype (WT); IC50 WT (nM), 100 μM ATP). Values come first.

IC50 (EGFR wildtype (WT); IC50 WT (nM), 100 μM ATP) | IC50 (EGFR L858R/C797S; [1]) | IC50 (EGFR L858R/T790M/C797S; [2]) | IC50 (EGFR Del19/C797S; [3]) | IC50 (EGFR Del19/T790M/C797S; [4]) | IC50 (EGFR wildtype (WT); [5]) | IC50 (EGFR L858R/C797S; [6]) | IC50 (EGFR L858R/T790M/C797S; [7]) | IC50 (EGFR Del19/C797S; [8]) | IC50 (EGFR Del19/T790M/C797S; [9]) | IC50 (EGFR L858R/T790M/C797S; Km ATP, read-out: IC50 L858R/T790M/C797S (nM), Km ATP) | IC50 (EGFR Del19/T790M/C797S; Km ATP, read-out: IC50 Del19/T790M/C797S (nM), Km ATP) | IC50 (EGFR wildtype (WT); ATP at Km, read-out: IC50 WT (nM), Km ATP) | IC50 (EGFR L858R/C797S; ATP at Km, read-out: IC50 L858R/C797S (nM), Km ATP) | IC50 (EGFR L858R/T790M/C797S; ATP at Km, read-out: IC50 L858R/T790M/C797S (nM), Km ATP) | IC50 (EGFR Del19/C797S; ATP at Km, read-out: IC50 Del19/C797S (nM), Km ATP) | IC50 (EGFR Del19/T790M/C797S; ATP at Km, read-out: IC50 Del19/T790M/C797S (nM), Km ATP) | SMILES
2690 nM | 8.5 nM | 0.5 nM | 0.8 nM | 0.6 nM | 10.2 nM | 0.6 nM | 0.2 nM | 0.7 nM | 0.5 nM |  |  |  |  |  |  |  | CN(C)CCn1cc(C#Cc2cnc(Nc3ccnc(-c4cnn(S(=O)(=O)C5CC5)c4)n3)cc2N2CCCC(CO)C2)cn1 (stereo not shown) [Example 118, (1-(2-((2-(1-(Cyclopropylsulfonyl)-1H-pyrazol-4-yl)pyrimidin-4-yl)amino)-5-((1-(2-(dimethylamino)ethyl)-1H-pyrazol-4-yl)ethynyl)pyridin-4-yl)piperidin-3-yl)methanol]
719 nM | 5.9 nM | 1.3 nM | 1.1 nM | 1.3 nM | 0.9 nM | 0.2 nM | 0.5 nM | 0.4 nM | 0.8 nM |  |  |  |  |  |  |  | CC1(CO)CCN(c2cc(Nc3ccnc(-c4cnn(S(=O)(=O)C5CC5)c4)n3)ncc2C#Cc2cnn(CCN3CCOCC3)c2)CC1 [Example 232, (1-(2-((2-(1-(Cyclopropylsulfonyl)-1H-pyrazol-4-yl)pyrimidin-4-yl)amino)-5-((1-(2-morpholinoethyl)-1H-pyrazol-4-yl)ethynyl)pyridin-4-yl)-4-methylpiperidin-4-yl)methanol]
2500 nM | 4.2 nM | 0.6 nM | 1 nM | 0.6 nM |  |  |  |  |  |  |  | 6.2 nM | 1.3 nM | 0.5 nM | 1.3 nM | 1.2 nM | CC1(CO)CCN(c2cc(Nc3ccnc(-c4cnn(S(=O)(=O)C5CC5)c4)n3)ncc2C#Cc2cccc(C(=O)N3CCOCC3)c2)CC1 [Example 261, (3-((6-((2-(1-(Cyclopropylsulfonyl)-1H-pyrazol-4-yl)pyrimidin-4-yl)amino)-4-(4-(hydroxymethyl)-4-methylpiperidin-1-yl)pyridin-3-yl)ethynyl)phenyl)(morpholino)methanone]
